The values that follow come from ChEMBL document CHEMBL1146350, “Synthesis of some new bioactive 3-amino-2-mercapto-5,6,7,8-tetrahydro[1]benzothieno[2,3-d]pyrimidin-4(3H)-one derivatives” (2007).

As a reminder, the inhibition in vivo is the change of the read-out against control, counted positive when it falls.

For one test, the system named is Rattus norvegicus. Briefly: Antiinflammatory activity in Wister Albino rat assessed as inhibition of paw edema at 50 mg/kg, po after 3hrs. Format: functional.
Another test has as its system Escherichia coli. As to the kind of experiment: Antibacterial activity against Escherichia coli ATCC 25922 by disc diffusion method. Format: functional. The settings on record: for MIC: Escherichia coli, ATCC 25922. (Agar diffusion results depend on both activity and mobility in agar.)
The subject of the next test is Pseudomonas aeruginosa. Briefly: Antibacterial activity against Pseudomonas aeruginosa ATCC 27853 by disc diffusion method. Format: functional. Particulars: for MIC: Pseudomonas aeruginosa, ATCC 27853.
A further test concerns Staphylococcus aureus. As to the kind of experiment: Antibacterial activity against Staphylococcus aureus ATCC 25923 by disc diffusion method. In kind it is functional.
A further test deals with Klebsiella pneumoniae. Briefly: Antibacterial activity against Klebsiella pneumoniae by disc diffusion method. Format: functional. Particulars: for MIC: Klebsiella pneumoniae.
A further test has as its system Talaromyces marneffei. As to the kind of experiment: Antifungal activity against Penicillium marneffei by serial plate dilution method. In kind it is functional. Particulars: for MIC: Talaromyces marneffei.
For the next test, the system named is Aspergillus flavus. As to the kind of experiment: Antifungal activity against Aspergillus flavus NCIM 524 by serial plate dilution method. Particulars: for MIC: Aspergillus flavus, NCIM 524. Format: functional.
The subject of a further test is Aspergillus fumigatus. Briefly: Antifungal activity against Aspergillus fumigatus NCIM 902 by serial plate dilution method. Format: functional. Particulars: for MIC: Aspergillus fumigatus, NCIM 902.
A further test concerns Trichophyton benhamiae. Briefly: Antifungal activity against Trichophyton mentagrophytes by serial plate dilution method. In kind it is functional, Arthroderma benhamiae. Particulars: for MIC: Trichophyton benhamiae.
The subject of test [1] is Mus musculus. Briefly: Anticonvulsant activity in Swiss Albino mouse assessed as duration of seizure at 2 mg/kg, po by PTZ induced seizure test. Format: functional.
Test [2] has as its system Mus musculus. Briefly: Anticonvulsant activity in Swiss Albino mouse assessed as duration of seizure at 50 mg/kg, po by PTZ induced seizure test. Format: functional.
The test system of test [3] is Mus musculus. As to the kind of experiment: Anticonvulsant activity in Swiss Albino mouse assessed as mortality at 50 mg/kg, po by PTZ induced seizure test. Format: functional, organism-based. Set-up: dose 50 mg/kg.
[4] abbreviates: Staphylococcus aureus, ATCC 25923, read-out: MIC.

SMILES strings stand for the structures. In brackets after ≈: the same amount, converted by molar mass. Activity calls are given as the source filed them. The rule behind the calls is not given here.

Regarding `Nn1c(SCC(=O)c2ccccc2)nc2sc3c(c2c1=O)CCCC3`, the inhibition in vivo at 50 mg/kg in the test on Rattus norvegicus was determined as 4.44%. Also, the “inhibition zone (IZ)” value in the test on Escherichia coli is 8 mm; in the test with Pseudomonas aeruginosa, 8 mm; in the test with Staphylococcus aureus it was 18 mm; with Klebsiella pneumoniae, 8 mm; in the test with Talaromyces marneffei, 6 mm; in the test with Aspergillus flavus, 10 mm. Also, the “inhibition zone (IZ)” value in the test with Aspergillus fumigatus and in the test with Trichophyton benhamiae was 8 mm throughout. Moreover, the MIC was greater than 100 µg/mL in the test with Escherichia coli; greater than 100 µg/mL against Pseudomonas aeruginosa; 12.5 µg/mL (≈ 33.6 µM) in the test on Staphylococcus aureus (setting [4]); greater than 100 µg/mL with Klebsiella pneumoniae; greater than 100 µg/mL in the test on Talaromyces marneffei; 80 µg/mL (≈ 215 µM) with Aspergillus flavus. For the same compound, the MIC in the test with Aspergillus fumigatus and against Trichophyton benhamiae was greater than 100 µg/mL throughout.
`CCc1nn2c(=O)c3c4c(sc3nc2s1)CCCC4`: the inhibition in vivo at 50 mg/kg in the test on Rattus norvegicus came to 51.1%. For the same compound, the “inhibition zone (IZ)” value was determined as 10 mm with Escherichia coli; 18 mm in the test on Pseudomonas aeruginosa; 8 mm in the test with Staphylococcus aureus; 22 mm in the test with Klebsiella pneumoniae; 6 mm with Talaromyces marneffei; 8 mm with Aspergillus flavus. Moreover, the “inhibition zone (IZ)” value in the test on Aspergillus fumigatus and in the test on Trichophyton benhamiae was 6 mm throughout. In addition, the MIC against Escherichia coli was 80 µg/mL (≈ 275 µM); in the test on Pseudomonas aeruginosa, 10 µg/mL (≈ 34.3 µM); with Staphylococcus aureus (setting [4]), greater than 100 µg/mL; in the test on Klebsiella pneumoniae it was 10 µg/mL (≈ 34.3 µM); with Talaromyces marneffei, greater than 100 µg/mL; with Aspergillus flavus, greater than 100 µg/mL. In addition, the MIC with Aspergillus fumigatus and in the test with Trichophyton benhamiae was greater than 100 µg/mL each time. Also, the results for the Activity with Mus musculus [1] and in the test on Mus musculus [2] were 110 s and 185 s, respectively. In addition, the outcome in the test with Mus musculus [3] was inactive.
For `Nn1c(SCC(=O)c2ccc(O)c(O)c2)nc2sc3c(c2c1=O)CCCC3`, the “inhibition zone (IZ)” value came out at 10 mm with Escherichia coli; 16 mm in the test on Pseudomonas aeruginosa; 16 mm with Staphylococcus aureus; 10 mm in the test with Klebsiella pneumoniae; 6 mm in the test on Talaromyces marneffei; 6 mm in the test with Aspergillus flavus. Further, the “inhibition zone (IZ)” value with Aspergillus fumigatus and in the test on Trichophyton benhamiae was 8 mm throughout. In addition, the MIC is 80 µg/mL (≈ 198 µM) against Escherichia coli; 60 µg/mL (≈ 149 µM) with Pseudomonas aeruginosa; 60 µg/mL (≈ 149 µM) in the test with Staphylococcus aureus (setting [4]); 80 µg/mL (≈ 198 µM) in the test with Klebsiella pneumoniae; greater than 100 µg/mL with Talaromyces marneffei; greater than 100 µg/mL in the test with Aspergillus flavus. Moreover, the MIC with Aspergillus fumigatus and against Trichophyton benhamiae was greater than 100 µg/mL in each case. In addition, the Activity in the test with Mus musculus [1] is reported as 62 s; with Mus musculus [2] it was 270 s. Besides, in the test on Mus musculus [3], the outcome was inactive.
`O=c1c2c3c(sc2nc2sc(-c4ccccc4)nn12)CCCC3`: the inhibition in vivo at 50 mg/kg in the test on Rattus norvegicus was found to be 24.4%. Further, the “inhibition zone (IZ)” value is given as 9 mm with Escherichia coli; 18 mm in the test with Pseudomonas aeruginosa; 18 mm in the test with Staphylococcus aureus; 16 mm with Klebsiella pneumoniae; 16 mm in the test with Talaromyces marneffei; 7 mm in the test on Aspergillus flavus. The “inhibition zone (IZ)” value came to 18 mm in the test on Aspergillus fumigatus and 7 mm with Trichophyton benhamiae. Further, the MIC with Escherichia coli is 100 µg/mL (≈ 295 µM); in the test on Pseudomonas aeruginosa it was 60 µg/mL (≈ 177 µM); with Staphylococcus aureus (setting [4]) it was 60 µg/mL (≈ 177 µM); with Klebsiella pneumoniae, 60 µg/mL (≈ 177 µM); in the test with Talaromyces marneffei, 12.5 µg/mL (≈ 36.8 µM); in the test with Aspergillus flavus, greater than 100 µg/mL. Further, the MIC was 12.5 µg/mL (≈ 36.8 µM) in the test with Aspergillus fumigatus and greater than 100 µg/mL with Trichophyton benhamiae. Also, the Activity with Mus musculus [1] is 58 s; with Mus musculus [2] it was 65 s. For the same compound, the result in the test on Mus musculus [3] was inactive.
`Nn1c(SCC(=O)c2ccnc(Cl)c2)nc2sc3c(c2c1=O)CCCC3`: the “inhibition zone (IZ)” value amounted to 8 mm with Escherichia coli; 8 mm with Pseudomonas aeruginosa; 10 mm with Staphylococcus aureus; 10 mm with Klebsiella pneumoniae; 6 mm in the test on Talaromyces marneffei; 6 mm in the test on Aspergillus flavus. The “inhibition zone (IZ)” value in the test with Aspergillus fumigatus amounted to 10 mm; in the test on Trichophyton benhamiae, 8 mm. In addition, the MIC was greater than 100 µg/mL against Escherichia coli; greater than 100 µg/mL against Pseudomonas aeruginosa; 80 µg/mL (≈ 197 µM) in the test on Staphylococcus aureus (setting [4]); 80 µg/mL (≈ 197 µM) in the test on Klebsiella pneumoniae; greater than 100 µg/mL in the test on Talaromyces marneffei; greater than 100 µg/mL in the test on Aspergillus flavus. Moreover, the MIC against Aspergillus fumigatus was 80 µg/mL (≈ 197 µM); against Trichophyton benhamiae it was greater than 100 µg/mL.
With `Nn1c(SCC(=O)c2ccc(Cl)cc2)nc2sc3c(c2c1=O)CCCC3`, the “inhibition zone (IZ)” value came out at 8 mm in the test with Escherichia coli; 18 mm in the test on Pseudomonas aeruginosa; 8 mm in the test on Staphylococcus aureus; 6 mm in the test with Klebsiella pneumoniae; 6 mm in the test with Talaromyces marneffei; 6 mm in the test on Aspergillus flavus. Moreover, the “inhibition zone (IZ)” value in the test with Aspergillus fumigatus and with Trichophyton benhamiae was 8 mm in each case. Also, the MIC was greater than 100 µg/mL in the test with Escherichia coli; 12.5 µg/mL (≈ 30.8 µM) against Pseudomonas aeruginosa; greater than 100 µg/mL in the test on Staphylococcus aureus (setting [4]); greater than 100 µg/mL against Klebsiella pneumoniae; greater than 100 µg/mL in the test on Talaromyces marneffei; greater than 100 µg/mL in the test on Aspergillus flavus. For the same compound, the MIC against Aspergillus fumigatus and in the test with Trichophyton benhamiae was greater than 100 µg/mL each time. The Activity amounted to 400 s in the test on Mus musculus [1] and 255 s with Mus musculus [2]. In addition, the outcome in the test on Mus musculus [3] was inactive.
As for `CN[C@@H]1[C@H](O[C@H]2[C@H](O[C@H]3[C@H](O)[C@@H](O)[C@H](N=C(N)N)[C@@H](O)[C@@H]3N=C(N)N)O[C@@H](C)[C@]2(O)C=O)O[C@@H](CO)[C@H](O)[C@H]1O` (stereo in doubt) [STREPTOMYCIN], the “inhibition zone (IZ)” value turned out to be 20 mm in the test on Escherichia coli, 24 mm in the test on Pseudomonas aeruginosa, 21 mm with Staphylococcus aureus and 24 mm with Klebsiella pneumoniae. Further, the MIC against Escherichia coli was less than 6.25 µg/mL; with Pseudomonas aeruginosa, less than 6.25 µg/mL; with Staphylococcus aureus, less than 6.25 ug/sq.cm; against Klebsiella pneumoniae it was less than 6.25 µg/mL.
Take `COc1ccc(C(=O)CSc2nc3sc4c(c3c(=O)n2N)CCCC4)cc1`: the “inhibition zone (IZ)” value with Escherichia coli was 8 mm; in the test with Pseudomonas aeruginosa, 8 mm; with Staphylococcus aureus, 8 mm; in the test with Klebsiella pneumoniae, 18 mm; with Talaromyces marneffei, 8 mm; in the test with Aspergillus flavus, 12 mm. The figures for the “inhibition zone (IZ)” value in the test on Aspergillus fumigatus and in the test with Trichophyton benhamiae were 16 mm and 4 mm, respectively. The MIC with Escherichia coli was greater than 100 µg/mL; against Pseudomonas aeruginosa, greater than 100 µg/mL; in the test with Staphylococcus aureus (setting [4]), greater than 100 µg/mL; with Klebsiella pneumoniae, 12.5 µg/mL (≈ 31.1 µM); against Talaromyces marneffei, greater than 100 µg/mL; in the test on Aspergillus flavus, 80 µg/mL (≈ 199 µM). Further, the figures for the MIC in the test on Aspergillus fumigatus and in the test on Trichophyton benhamiae were 12.5 µg/mL (≈ 31.1 µM) and greater than 100 µg/mL, respectively. Besides, the values for the Activity with Mus musculus [1] and in the test on Mus musculus [2] were 41 s and 450 s, respectively. Also, in the test on Mus musculus [3], the result was inactive.
Consider `O=c1c2c3c(sc2nc2sc(-c4cc(Cl)cc(Cl)c4)nn12)CCCC3`, for which the “inhibition zone (IZ)” value in the test on Escherichia coli stood at 8 mm; in the test on Pseudomonas aeruginosa it was 8 mm; in the test on Staphylococcus aureus, 8 mm; in the test with Klebsiella pneumoniae, 6 mm; with Talaromyces marneffei, 5 mm; with Aspergillus flavus, 6 mm. Besides, the “inhibition zone (IZ)” value in the test with Aspergillus fumigatus was found to be 5 mm; in the test on Trichophyton benhamiae it was 6 mm. For the same compound, the MIC in the test on Escherichia coli, against Pseudomonas aeruginosa, in the test on Staphylococcus aureus (setting [4]), against Klebsiella pneumoniae, with Talaromyces marneffei and with Aspergillus flavus was greater than 100 µg/mL each time. Moreover, the MIC with Aspergillus fumigatus and in the test with Trichophyton benhamiae was greater than 100 µg/mL throughout.
With `O=c1c2c3c(sc2nc2sc(CCl)nn12)CCCC3`, the Activity worked out at 70 s with Mus musculus [1] and 450 s in the test with Mus musculus [2]. Moreover, the outcome in the test with Mus musculus [3] was inactive.
As for `OC(Cn1cncn1)(Cn1cncn1)c1ccc(F)cc1F` [FLUCONAZOLE], the “inhibition zone (IZ)” value in the test with Talaromyces marneffei was 21 mm; in the test on Aspergillus flavus it was 18 mm; in the test with Aspergillus fumigatus it was 21 mm; in the test with Trichophyton benhamiae, 19 mm. Besides, the MIC with Talaromyces marneffei, with Aspergillus flavus, against Aspergillus fumigatus and with Trichophyton benhamiae was less than 6.25 µg/mL in each case.
Turning to `O=c1c2c3c(sc2nc2sc(=S)[nH]n12)CCCC3`, the inhibition in vivo at 50 mg/kg in the test on Rattus norvegicus is 7.69%. Also, the Activity in the test with Mus musculus [1] is reported as 56 s; in the test with Mus musculus [2], 39 s. Further, the outcome with Mus musculus [3] was inactive.
Consider `O=c1c2c3c(sc2nc2sc(Cc4ccccc4)nn12)CCCC3`, for which the “inhibition zone (IZ)” value in the test with Escherichia coli turned out to be 10 mm; with Pseudomonas aeruginosa, 10 mm; with Staphylococcus aureus it was 8 mm; in the test on Klebsiella pneumoniae, 8 mm; in the test with Talaromyces marneffei, 6 mm; in the test on Aspergillus flavus, 10 mm. For the same compound, the “inhibition zone (IZ)” value in the test on Aspergillus fumigatus and with Trichophyton benhamiae was 6 mm in each case. Also, the MIC is 80 µg/mL (≈ 226 µM) with Escherichia coli; 80 µg/mL (≈ 226 µM) against Pseudomonas aeruginosa; greater than 100 µg/mL with Staphylococcus aureus (setting [4]); greater than 100 µg/mL against Klebsiella pneumoniae; greater than 100 µg/mL against Talaromyces marneffei; 80 µg/mL (≈ 226 µM) against Aspergillus flavus. For the same compound, the MIC against Aspergillus fumigatus and against Trichophyton benhamiae was greater than 100 µg/mL throughout.
